Measurements: patent publication US20090246134A1, “COMPOSITIONS AND METHODS FOR MODULATING GATED ION CHANNELS” (PainCeptor Pharma Corporation, priority 2007, published 2009)

Test system: formalin-induced pain in Sprague-Dawley rats
Test: Formalin model of acute tonic pain
Assay type: in vivo, rat
Procedure: Male Sprague-Dawley rats are housed together in groups of three animals under standard conditions with unrestricted access to food and water. All experiments are conducted according to the ethical guidelines for investigations of experimental pain in conscious animals (Zimmerman, 1983)
Assessment of formalin-induced flinching behavior in normal, uninjured rats (body weight 150-180 g) was made with the use of an Automated Nociception Analyser (University of California, San Diego, USA). Briefly, this involved placing a small C-shaped metal band (10 mm wide×27 mm long) on the hindpaw of the rat to be tested. The rats (four rats were included in each testing session) were then placed in a cylindrical plexiglass observation chamber (diameter 30.5 cm and height 15 cm) for 20 min for adaptation purposes prior to being administered drug or vehicle according to the experimental paradigm being followed. After adaptation, individual rats were then gently restrained and formalin (5% in saline, 50 μl, s.c.) was injected into the plantar surface of the hindpaw using a 27 G needle. Rats were then returned to their separate observation chambers, each of which were in turn situated upon an enclosed detection device consisting of two electromagnetic coils designed to produce an electromagnetic field in which movement of the metal band could be detected. The analogue signal was then digitised and a software algorithm (LabView) applied to enable discrimination of flinching behaviour from other paw movements. A sampling interval of 1 min was used and on the basis of the resulting response patterns 5 phases of nociceptive behaviour were identified and scored: first phase (P1; 0-5 min), interphase (Int; 6-15 min), second phase (P2; […]), phase 2A (P2A; 16-40 min) and phase 2B (P2B; 41-60 min).
Nociceptive behavior was also determined manually every 5 min by measuring the amount of time spent in each of four behavioral categories: 0, treatment of the injected hindpaw is indistinguishable from that of the contralateral paw; 1, the injected paw has little or no weight placed on it; 2, the injected paw is elevated and is not in contact with any surface; 3, the injected paw is licked, bitten, or shaken. A weighted nociceptive score, ranging from 0 to 3 was calculated by multiplying the time spent in each category by the category weight, summing these products, and dividing by the total time for each 5 min block of time. (Coderre et al., Pain 1993; 54: 43). On the basis of the resulting response patterns, 2 phases of nociceptive behavior were identified and scored: first phase (P1; 0-5 min), interphase (Int; 6-15 min), second phase (P2; […]), phase 2A (P2A; 16-40 min) and phase 2B (P2B; 41-60 min).
Statistical analysis was performed using Prism™ 4.01 software package (GraphPad, San Diego, Calif., USA). The difference in response levels between treatment groups and control vehicle group was analyzed using an ANOVA followed by Bonferroni's method for post-hoc pair-wise comparisons. A p value<0.05 was considered to be significant
The effect of Compound A on pain induced by intraplantar formalin injection was investigated. Compound A was administered i.p. 30 min. before the formalin. Compound A was able to reduce the total pain score behavior (flinching, licking, biting) in phase 1 and 2 of the formalin test.

[1] = i.p. 30 min before formalin, n=6-8

COc1ccc(F)cc1-c1cc2c(c3c1CCN(C)C3)NC(=O)C2=NO [Compound A, 5-(5-fluoro-2-methoxyphenyl)-6,7,8,9-tetrahydro-3-(hydroxyimino)-8-methyl-1H-pyrrolo[3,2-h]isoquinoline-2(3H)-one]
ED50 (Rattus norvegicus, ip, i.p. 30 min before formalin, read-out: ED50, Phase 2 of the total pain score): ~12 mg/kg | relationship between dose and plasma exposure (formalin experiments, i.p.): linear relationship | effects on phases 1 and 2, specific pain behaviors (licking and biting) only [1]: quite pronounced | total pain score behavior (flinching, licking, biting) in phase 1 and 2 of the formalin test [1]: reduce | acute tonic pain induced by formalin injection in the paw (rat, in vivo): block
